This is an account of results in US4041064A, “16-Methyl prost-5-en-13-ynoic acid derivatives” (Carlo-Erba S.p.A., priority 1974, dated 1977).

For one assay, the system named is uterus of rats. The experiment in a line: Rat uterus test in vitro (oestrogenized rat uteri). Here is the method: The rat uterus test consisted of a 10 ml thermostatic bath held at 29° C., in which oestrogenized rat uteri under 0.5 g traction were carboxygenated in a Dejalon saline solution. The preparation was left to stabilize for 30 minutes before the compounds and the standard were tested. Response was measured using a isotonic frontal lever, long enough to amplify the response 4.5 times.

A further assay concerns stomach of rats. Nature of the assay: Activity in vitro in the stomach of rats. To be noted: rat stomach.
The next assay relates to ileum of guinea-pigs. The experiment in a line: Guinea pig ileum test in vitro. Here is the method:
The guinea pig ileum test consisted of a 10 ml thermostatic bath held at 35° C., containing the ileum of a male guinea pig, under 0.5 g traction, carboxygenated in a Tyrode solution; this was left for 30 minutes to stabilize before the compounds were tested. The response was recorded using a isotonic frontal lever, long enough to amplify the response 4.5 times.

Assay [1] has as its system stress-induced gastric ulcers. Nature of the assay: Inhibition of stress-induced gastric ulcers in rats (Takagi-Okabe method). In kind it is in vivo, rat. Particulars: anti-ulcer; for ED50: Rattus norvegicus, read-out: ED50 (Fiducial Limits For P=0.05); for Potency Ratio (Fiducial Limits For P=0.05): PGE2 = 1 (conventional value). The source says: (§1) Moreover, the compounds of the present invention are endowed with an excellent anti-ulcer activity as well as with a strong gastric anti-secretory effect, as shown by the following Tables: where the conventional value of 1 is given to the anti-ulcer and anti-secretory activity of PGE2, and where the compounds of the invention are compared also with 13,14-dehydro-PGE2, 16S-methyl-PGE2 and 16(S,R)-methyl-13,14-dehydro-PGE2.
INHIBITION OF STRESS-INDUCED GASTRIC ULCERS IN RATS (*)
(*) The ulcers are induced according to the method of Takagi-Okabe (K.
Takagi et al., Jap. J. Pharmacol., 18, 9 (1968)

For another assay, the system named is gastric secretion. Nature of the assay: Antisecretory activity in rats (Shay method). Particulars: subcutaneously; for ED50: Rattus norvegicus, sc, read-out: ED50 (Fiducial Limits For P = 0.05); for Potency Ratio (Fiducial Limits For P=0.05): PGE2 = 1 (conventional value). In kind it is in vivo, rat.
From the text: as §1
ANTISECRETORY ACTIVITY IN RATS (*)
(*) The antisecretory activity was studied according to H. Shay et al.,

Assay [2] concerns bronchospasm in guinea-pigs. Nature of the assay: Anti-bronchospastic (anti-asthmatic) activity in guinea-pigs (histamine- and anaphylactic shock-induced bronchospasm). Details: species or system guinea pig. To be noted: in vivo and in vitro in guinea-pigs; for anti-bronchospastic activity: compared with natural PGE2; for anti-bronchospastic activity relative to natural PGE2: histamine- and anaphylactic shock-induced. Here is the method:
Four hours later, the same animals were treated with a spray of the test compounds at different solutions in saline, and with a spray of standard PGE2 solution. They were then given another histamine spray (0.2%) and again, the times taken for bronchospasm to appear were noted.

Molecules are shown by their SMILES. Like-named read-outs stand apart in the source and are kept apart here.

Regarding `CCCC[C@H](C)[C@H](O)C#C[C@@H]1[C@H](O)CC(=O)[C@H]1C/C=C\CCCC(=O)O` (single isomer, unassigned) [16s-methyl-5c-9-oxo-11α,15S-trihydroxy-8,12-diiso-prost-5-en-13-ynoicacid], in the assay on uterus of rats, the spasmogenic activity result is recorded as “excellent spasmogenic activity”. Further, the “activity in vitro in the stomach of rats” value in the assay with stomach of rats is “practically devoid of any activity”. For the same compound, in the assay on ileum of guinea-pigs, the “activity in vitro in the ileum of guinea-pigs” value is on record as “practically devoid of any activity”.
Usually ED50 stands for the midpoint of the dose-response relation. For the compound `CCCCC[C@H](O)C#C[C@H]1[C@H](O)CC(=O)[C@@H]1C/C=C\CCCC(=O)O` [13,14-dehydro-PGE2, reference compound], the 50% effective dose (ED50) in assay [1] (po, os) is 0.063 mg/kg; in assay [1] (sc, subcutaneously), 0.043 mg/kg; in the assay with gastric secretion, 0.055 mg/kg. The “Potency Ratio (Fiducial Limits For P=0.05)” value in assay [1] (os) is recorded as 9.3(4.5-19.0); in assay [1] (subcutaneously), 4.9(2.4-9.6); with gastric secretion, 2.6 (1.4-4.5).
Take `CCCCC(C)[C@H](O)C#C[C@H]1[C@H](O)CC(=O)[C@@H]1C/C=C\CCCC(=O)O` (stereo partly drawn) [16(S,R)-methyl-13,14-dehydro-PGE2, reference compound]: the ED50 in assay [1] (po, os) worked out at 0.0202 mg/kg; in assay [1] (sc, subcutaneously), 0.00341 mg/kg; in the assay on gastric secretion, 0.0068 mg/kg. Moreover, the “Potency Ratio (Fiducial Limits For P=0.05)” value in assay [1] (os) is listed as 39.8(17.1-102.1); in assay [1] (subcutaneously), 30.8(20.4-44.2); in the assay on gastric secretion it was 28.2 (18.1-41.6).
Take `CCCC[C@@H](C)[C@@H](O)C#C[C@H]1[C@H](O)CC(=O)[C@@H]1C/C=C\CCCC(=O)O` [16R-methyl-13,14-dehydro-15-epi-PGE2, 16r-methyl-5c-9-oxo-11α,15R-dihydroxy-prost-5-en-13-ynoic acid]: the ED50 in assay [1] (po, os) came out at 0.141 mg/kg; in assay [1] (sc, subcutaneously), 0.0087 mg/kg; with gastric secretion, 0.0328 mg/kg. Moreover, the entries for the “Potency Ratio (Fiducial Limits For P=0.05)” value (in assay [1] (os); in assay [1] (subcutaneously); in the assay on gastric secretion) were 7.3(3.1-16.9), 7.4(4.8-11.1) and 3.8 (2.7-5.5), respectively.
In the case of `CCCC[C@@H](C)[C@H](O)C#C[C@H]1[C@H](O)CC(=O)[C@@H]1C/C=C\CCCC(=O)O` [16R-methyl-13,14-dehydro-PGE2, 16r-methyl-5c-9-oxo-11α,15S-dihydroxy-prost-5-en-13-ynoic acid], the median effective dose (ED50) in assay [1] (po, os) worked out at 0.0098 mg/kg; in assay [1] (sc, subcutaneously), 0.0015 mg/kg; in the assay on gastric secretion it was 0.0026 mg/kg. Besides, the results for the “Potency Ratio (Fiducial Limits For P=0.05)” value (in assay [1] (os); in assay [1] (subcutaneously); with gastric secretion) were 105.6(46.6-282.6), 43.1(28.4-64.6) and 48.3 (33.5-71.6), respectively. The anti-bronchospastic activity entry in assay [2] is “very good anti-bronchospastic activity”. The “anti-bronchospastic activity relative to natural PGE2” value in assay [2] was “four to six”.
Regarding `CCCC[C@H](C)[C@@H](O)C#C[C@H]1[C@H](O)CC(=O)[C@@H]1C/C=C\CCCC(=O)O` [16S-methyl-13,14-dehydro-15-epi-PGE2, 16s-methyl-5c-9-oxo-11α,15R-dihydroxy-prost-5-en-13-ynoic acid], the median effective dose (ED50) came to 0.22 mg/kg in assay [1] (po, os) and 0.0911 mg/kg in assay [1] (sc, subcutaneously). Moreover, the “Potency Ratio (Fiducial Limits For P=0.05)” value is 3.8(1.75-8.4) in assay [1] (os) and 2.9(1.9-4.5) in assay [1] (subcutaneously).
Turning to `CCCC[C@H](C)[C@H](O)C#C[C@H]1[C@H](O)CC(=O)[C@@H]1C/C=C\CCCC(=O)O` [16S-methyl-13,14-dehydro-PGE2, 16S-methyl-5c-9-oxo-11α,15S-dihydroxy-prost-5-en-13-ynoic acid], the ED50 was determined as 0.015 mg/kg in assay [1] (po, os); 0.0009 mg/kg in assay [1] (sc, subcutaneously); 0.0042 mg/kg in the assay with gastric secretion. Also, the “Potency Ratio (Fiducial Limits For P=0.05)” value in assay [1] (os) is listed as 42.8(18.8-101.7); in assay [1] (subcutaneously) it was 69.8(46.4-105.2); with gastric secretion it was 35.7 (20.8-68.9). The anti-bronchospastic activity result in assay [2] is on record as “very good anti-bronchospastic activity”. The “anti-bronchospastic activity relative to natural PGE2” value in assay [2] is “four to six”.
In the case of `CCCC[C@H](C)[C@H](O)/C=C/[C@H]1[C@H](O)CC(=O)[C@@H]1C/C=C\CCCC(=O)O` [16S-methyl-PGE2, reference compound], the median effective dose (ED50) in assay [1] (po, os) was 0.0242 mg/kg; in assay [1] (sc, subcutaneously), 0.0177 mg/kg; in the assay on gastric secretion, 0.0112 mg/kg. For the same compound, the figures for the “Potency Ratio (Fiducial Limits For P=0.05)” value (in assay [1] (os); in assay [1] (subcutaneously); in the assay on gastric secretion) were 39.0(18.9-80.3), 12.8(9.0-17.9) and 13.5 (7.9-23.7), respectively.
Take `CCCCC[C@H](O)/C=C/[C@H]1[C@H](O)CC(=O)[C@@H]1C/C=C\CCCC(=O)O` [PGE2, reference compound]: the ED50 in assay [1] (po, os) was 0.717 mg/kg; in assay [1] (sc, subcutaneously), 0.119 mg/kg; in the assay with gastric secretion it was 0.155 mg/kg.
